Assay results reported in US11076594B2, “Pyrazolone compound or salt thereof, preparation method therefor, herbicide composition and use thereof” (QINGDAO KINGAGROOT CHEMICAL COMPOUNDS CO., LTD., priority 2015, dated 2021).

Columns and labels:
Type in all cases: in vivo
Conditions in all cases: post-emergence spray at 4-5 leaf stage, 250 g/ha active ingredient with 450 kg/ha water, rated after 3 weeks in greenhouse
rice = assay: post-emergence stage experiment, crop (Table 1)
Method: (§1) The activity level standard of harmful plant destruction (i.e. growth control rate) is as follows: The above described growth control rate is fresh weight control rate. Monocotyledonous and dicotyledonous weed seeds and main crop seeds (i.e. wheat, corn, rice, soybean, cotton, oilseed, millet and sorghum.) were put into a plastic pot loaded with soil. Then covered with 0.5-2 cm soil, the seeds were allowed to grow in good greenhouse environment. The test plants were treated at 4-5 leaf stage 2-3 weeks after sowing. The test compounds of the invention were dissolved with acetone respectively, then added with 80 tween and diluted by certain amount of water to certain concentration. The solution was sprayed to the plants with a sprayer. Then the plants were cultured for 3 weeks in the greenhouse.

crab grass = assay: weed control effect in post-emergence stage (Table 1); set-up: key: Level 10: completely dead; Level 9: above 95% growth control rate; Level 8: above 90% growth control rate; Level 7: above 80% growth control rate; Level 6: above 70% growth control rate; Level 5: above 60% growth control rate; Level 4: above 50% growth control rate; Level 3: above 20% growth control rate; Level 2: 5%-20% growth control rate; Level 1: below 5% growth control rate
Method: as §1

bidens bipinnata = assay: as above; set-up: key: Level 10: completely dead; Level 9: above 95% growth control rate; Level 8: above 90% growth control rate; Level 7: above 80% growth control rate; Level 6: above 70% growth control rate; Level 5: above 60% growth control rate; Level 4: above 50% growth control rate; Level 3: above 20% growth control rate; Level 2: 5%-20% growth control rate; Level 1: below 5% growth control rate
Method: as §1

foxtail = assay: as above; set-up: key: Level 10: completely dead; Level 9: above 95% growth control rate; Level 8: above 90% growth control rate; Level 7: above 80% growth control rate; Level 6: above 70% growth control rate; Level 5: above 60% growth control rate; Level 4: above 50% growth control rate; Level 3: above 20% growth control rate; Level 2: 5%-20% growth control rate; Level 1: below 5% growth control rate
Method: as §1

echinochloa = assay: as above; set-up: key: Level 10: completely dead; Level 9: above 95% growth control rate; Level 8: above 90% growth control rate; Level 7: above 80% growth control rate; Level 6: above 70% growth control rate; Level 5: above 60% growth control rate; Level 4: above 50% growth control rate; Level 3: above 20% growth control rate; Level 2: 5%-20% growth control rate; Level 1: below 5% growth control rate
Method: as §1

rorippa indica = assay: as above; set-up: key: Level 10: completely dead; Level 9: above 95% growth control rate; Level 8: above 90% growth control rate; Level 7: above 80% growth control rate; Level 6: above 70% growth control rate; Level 5: above 60% growth control rate; Level 4: above 50% growth control rate; Level 3: above 20% growth control rate; Level 2: 5%-20% growth control rate; Level 1: below 5% growth control rate
Method: as §1

Indian mallow = assay: as above; set-up: key: Level 10: completely dead; Level 9: above 95% growth control rate; Level 8: above 90% growth control rate; Level 7: above 80% growth control rate; Level 6: above 70% growth control rate; Level 5: above 60% growth control rate; Level 4: above 50% growth control rate; Level 3: above 20% growth control rate; Level 2: 5%-20% growth control rate; Level 1: below 5% growth control rate
Method: as §1

wheat = assay: post-emergence stage experiment, crop (Table 1)
Method: as §1

corn = assay: post-emergence stage experiment, crop (Table 1)
Method: as §1

SMILES	effect on crop, Rice (level) (rice)	weed control effect, Crab grass (level) (crab grass)	weed control effect, Bidens bipinnata (level) (bidens bipinnata)	weed control effect, Green foxtail (level) (foxtail)	weed control effect, Echinochloa (level) (echinochloa)	weed control effect, Rorippa indica (level) (rorippa indica)	weed control effect, Indian mallow (level) (Indian mallow)	effect on crop, Wheat (level) (wheat)	effect on crop, Corn (level) (corn)
Cc1nn(C)cc1C(=O)Oc1c(C(=O)c2ccc(C(F)(F)F)c(N3CCCC3=O)c2Cl)cnn1C [Compound 016]	4 (Level 4: above 50% growth control rate)	10	5 (Level 5: above 60% growth control rate)	10	10	10	10	3 (Level 3: above 20% growth control rate)	3 (Level 3: above 20% growth control rate)
Cn1ncc(C(=O)c2ccc(C(F)(F)F)c(N3CCCCC3=O)c2Cl)c1O [Compound 029]	1 (Level 1: below 5% growth control rate)	7 (Level 7: above 80% growth control rate)	7 (Level 7: above 80% growth control rate)	9 (Level 9: above 95% growth control rate)	5 (Level 5: above 60% growth control rate)	7 (Level 7: above 80% growth control rate)	7 (Level 7: above 80% growth control rate)	3 (Level 3: above 20% growth control rate)	7 (Level 7: above 80% growth control rate)
CC(=O)Oc1c(C(=O)c2ccc(C(F)(F)F)c(N3CCCCC3=O)c2Cl)cnn1C [Compound 030]	1 (Level 1: below 5% growth control rate)	8 (Level 8: above 90% growth control rate)	5 (Level 5: above 60% growth control rate)	9 (Level 9: above 95% growth control rate)	5 (Level 5: above 60% growth control rate)	10	6 (Level 6: above 70% growth control rate)	4 (Level 4: above 50% growth control rate)	9 (Level 9: above 95% growth control rate)
CCS(=O)(=O)Oc1c(C(=O)c2ccc(C(F)(F)F)c(N3CCCCC3=O)c2Cl)cnn1C [Compound 031]	1 (Level 1: below 5% growth control rate)	9 (Level 9: above 95% growth control rate)	6 (Level 6: above 70% growth control rate)	10	5 (Level 5: above 60% growth control rate)	8 (Level 8: above 90% growth control rate)	7 (Level 7: above 80% growth control rate)	3 (Level 3: above 20% growth control rate)	9 (Level 9: above 95% growth control rate)
CCOc1c(C(=O)Oc2c(C(=O)c3ccc(C(F)(F)F)c(N4CCCCC4=O)c3Cl)cnn2C)cnn1C [Compound 032]	8 (Level 8: above 90% growth control rate)	10	6 (Level 6: above 70% growth control rate)	10	9 (Level 9: above 95% growth control rate)	10	10	1 (Level 1: below 5% growth control rate)	4 (Level 4: above 50% growth control rate)
Cn1cc(C(=O)Oc2c(C(=O)c3ccc(C(F)(F)F)c(N4CCCCC4=O)c3Cl)cnn2C)cn1 [Compound 033]	8 (Level 8: above 90% growth control rate)	9 (Level 9: above 95% growth control rate)	9 (Level 9: above 95% growth control rate)	10	9 (Level 9: above 95% growth control rate)	10	10	2 (Level 2: 5%-20% growth control rate)	3 (Level 3: above 20% growth control rate)
Cc1nn(C)cc1C(=O)Oc1c(C(=O)c2ccc(C(F)(F)F)c(N3CCCCC3=O)c2Cl)cnn1C [Compound 034]	3 (Level 3: above 20% growth control rate)	10	4 (Level 4: above 50% growth control rate)	5 (Level 5: above 60% growth control rate)	10	10	9 (Level 9: above 95% growth control rate)	1 (Level 1: below 5% growth control rate)	3 (Level 3: above 20% growth control rate)
CCOC(=O)Oc1c(C(=O)c2ccc(C(F)(F)F)c(N3CCCCC3=O)c2Cl)c(C)nn1C [Compound 036]	8 (Level 8: above 90% growth control rate)	5 (Level 5: above 60% growth control rate)	6 (Level 6: above 70% growth control rate)	10	7 (Level 7: above 80% growth control rate)	5 (Level 5: above 60% growth control rate)	5 (Level 5: above 60% growth control rate)	3 (Level 3: above 20% growth control rate)	0
Cc1nn(C)cc1C(=O)Oc1c(C(=O)c2ccc(C(F)(F)F)c(N3CCCCC3=O)c2Cl)c(C)nn1C [Compound 038]	6 (Level 6: above 70% growth control rate)	6 (Level 6: above 70% growth control rate)	2 (Level 2: 5%-20% growth control rate)	10	9 (Level 9: above 95% growth control rate)	10	10	1 (Level 1: below 5% growth control rate)	0
Cn1ncc(C(=O)c2ccc(C(F)(F)F)c(N3CCCCCC3=O)c2Cl)c1O [Compound 050]	0	3 (Level 3: above 20% growth control rate)	3 (Level 3: above 20% growth control rate)	7 (Level 7: above 80% growth control rate)	2 (Level 2: 5%-20% growth control rate)	5 (Level 5: above 60% growth control rate)	9 (Level 9: above 95% growth control rate)	0	3 (Level 3: above 20% growth control rate)
CCOC(=O)Oc1c(C(=O)c2ccc(C(F)(F)F)c(N3CCCCCC3=O)c2Cl)c(C)nn1C [Compound 055]	6 (Level 6: above 70% growth control rate)	4 (Level 4: above 50% growth control rate)	10	9 (Level 9: above 95% growth control rate)	8 (Level 8: above 90% growth control rate)	2 (Level 2: 5%-20% growth control rate)	10	0	0
